Data published in patent US20250064007A1, “Self-Fertilization as Methods for Stabilizing Ploidy after Colchicine Treatment Model” (Rev Genomics, Inc., priority 2023, published 2025).

Tested on: Cannabis plant
Assay: Leaf ploidy by flow cytometry after colchicine treatment of haploid Cannabis plants
Assay type: in vivo
Conditions: for cells counted diploid / cells counted haploid / cells counted tetraploid: mixaploid (n+2n) state
From the text: In some exemplary embodiments, a colchicine concentration (in water) of 0.25% may be used in addition to 0.5%, 1% and 5%. An issue arises with Cannabis in that not all the cells or tissues of a colchicine treated plant will double their ploidy.
On the multi-cellular level, doubling the ploidy of plants requires colchicine treatment applied to the shoot apical meristem (SAM). The SAM is composed of three distinct cell layers: L1 (outermost layer), L2 (middle layer), and L3 (innermost layer). Within the SAM, stem cell division takes place along the peripheral zone where new leaves emerge (Heidstra, 2014). The L1 gives rise to the epidermis or the protective covering of the leaf and stem, L2 to the sub epidermal photosynthetic mesophyll tissue, and L3 to the vascular tissue including the xylem and phloem. L1 and L2 divide anticlinally or […] to each other and thus remain distinct layers (Meyerowitz, 1997). On occasion, a cell in the SAM can divide periclinally whereby the daughter cell invades and acquires the identity one layer out and brings its ploidy with it. This organizational dynamic creates a stable yet mutable developmental path. In fact, the discovery of the stability of different layers within a meristem was discovered by creating a chimera using colchicine on Datura. The researchers were able to follow the developmental lineage of the differently sized cells due to the different ploidy levels within the SAM (Satina, 1940).

[1] = cultivar Cryptic Lineage Legacy, FIG. 4C
[2] = cultivar Herbaceous Sting, FIG. 2C
[3] = cultivar Operation Green Harvest Haze, FIG. 3C
[4] = cultivar Standing Liberty, FIG. 1C

What does the source list for `COc1cc2c(c(OC)c1OC)-c1ccc(OC)c(=O)cc1[C@@H](NC(C)=O)CC2` [Colchicine]?
ploidy doubling of treated haploid plants (colchicine treated haploid Cannabis plants): very rarely, if ever, achieve a fully diploid state; cells counted diploid [1]: approximately 20.65%; cells counted haploid [1]: approximately 17.65%; cells counted tetraploid [1]: approximately 2.63%; cells counted diploid [2]: approximately 45.82%; cells counted haploid [2]: approximately 12.15%; cells counted tetraploid [2]: approximately 3.93%; cells counted diploid [3]: approximately 22.8%; cells counted haploid [3]: approximately 32.4%; cells counted tetraploid [3]: approximately 3.1%; cells counted diploid [4]: approximately 49%; cells counted haploid [4]: approximately 12.48%; cells counted tetraploid [4]: approximately 4.39%
